In patent US4537895A, “Isoquinoline derivatives” (EGYT Gyogyszervegyeszeti Gyar, priority 1982, dated 1985):
Values joined by “and” are separate entries in the source; they are usually repeats but may differ in a detail not shown here. Equal values may be shown once. Read-outs that look alike come from different tables or passages of the source.

Legend:
[1] = system: catalepsy induced by Haloperidol / tetrabenazine; experiment: Comparison of anti-haloperidol (Test 2) and anti-tetrabenazine (Test 4) activity; format: in vivo, mice; details: ED Test 2 (haloperidol) : ED Test 4 (tetrabenazine)
Method: (§1) 2. S.c. dose which inhibits the catalepsy induced by a 13 umole/kg dose of Haloperidol, in 50% of the mice.
(§2) 4. S.c. dose which inhibits the catalepsy induced by a 110 umole/kg dose of tetrabenazine, in 50% of the mice.
(§3) The acute toxicity data are determined in mice. Tests 2-6 are also carried out in mice. The doses are expressed in micromole/kg. The therapeutical index (TI) is the LD/ED quotient.
On comparing the dopaminerg type anti-haloperidol test and the anti-tetrabenazine activity being characteristic of the antidepressive effect the following can be stated:
The quotient of the ED values of Columns 2 and 4 is the highest for Compound I (55:13=4.2). […] The said quotient is high in the case of Nomifensine (1.6), Compound D (1.8), Compound E (2.7) and Compound F (1.7).

[2] = system: stereotypy; experiment: Test 8: induction of stereotypy; format: in vivo; details: Rattus norvegicus, sc, rats; ">" = inactive in the given dose; read-out: Lowest s.c. dose which still induces stereotypy (Test 8)
Method: 8. The lowest s.c. dose which still induces stereotypy, in rats.
(§4) Tests 7-10 are carried out in cats and rats, the doses are expressed in micromole/kg.
(§5) Tests 2, 8, 9 and 10 are suitable for the evaluation of the dopaminerg stimulating effect of the test compounds (potential anti-parkinson agent). Tests 4, 5, 6 and 7 give information about the catecholamine-uptake inhibiting effect (potential antidepressive activity).

[3] = system: blood pressure and nictitating membrane; experiment: Test 7: blood pressure and nictitating membrane effect; format: in vivo; details: Felis catus, iv, cats; ">" = inactive in the given dose; read-out: Lowest i.v. dose which still increases the blood pressure and nictitating membrane effect (Test 7)
Method: as §4, §5

[4] = system: spontaneous motility; experiment: Test 3: spontaneous motility; format: in vivo; details: for TI (Test 3), LD/ED quotient: LD50 / ED of Test 3; for minimal effective dose: Mus musculus, ip
Method: 3. Lowest i.p. dose which still increases or decreases the spontaneous motility of the mice.
as §3
In Test 3 "+=motility increase" and "-=motility decrease."

[5] = system: ptosis induced by tetrabenazine; experiment: Test 5: inhibition of tetrabenazine-induced ptosis; format: in vivo; details: for TI (Test 5), LD/ED quotient: LD50 / ED of Test 5; for ED50: Mus musculus, sc, read-out: ED, s.c. dose which inhibits the ptosis induced by tetrabenazine in 50% of the mice (Test 5)
Method: 5. S.c. dose which inhibits the ptosis induced by a dose of 79 umole/kg of tetrabenazine, in 50% of the mice.
as §3, §5

[6] = system: catalepsy induced by tetrabenazine; experiment: Test 4: inhibition of tetrabenazine-induced catalepsy; format: in vivo; details: for TI (Test 4), LD/ED quotient: LD50 / ED of Test 4; for ED50: Mus musculus, sc, read-out: ED, s.c. dose which inhibits the catalepsy induced by tetrabenazine in 50% of the mice (Test 4)
Method: as §2, §3, §5

[7] = Acute toxicity, s.c., LD50; design: species or system mice; details: mouse, in vivo, sc, mice, 96 hour observation
Method: as §3

[8] = system: catalepsy induced by Haloperidol; experiment: Test 2: inhibition of haloperidol-induced catalepsy; format: in vivo; details: for TI (Test 2), LD/ED quotient: LD50 / ED of Test 2; for ED50: Mus musculus, sc, read-out: ED, s.c. dose which inhibits the catalepsy induced by Haloperidol in 50% of the mice (Test 2)
Method: as §1, §3, §5

[9] = system: decrease of the rectal temperature caused by reserpine; experiment: Test 6: reserpine-induced decrease of rectal temperature; format: in vivo; details: for TI (Test 6), LD/ED quotient: LD50 / ED of Test 6; for minimal effective dose: Mus musculus, sc, read-out: ED, lowest s.c. dose which still hinders the decrease of the rectal temperature caused by reserpine (Test 6)
Method: 6. The lowest s.c. dose which still hinders the decrease of the rectal temperature caused by the administration of a 1,6 umole/kg dose of reserpine.
as §3, §5

[10] = system: prolactine level; experiment: Test 10: decrease of prolactine level in ovariectomised rats; format: in vivo; details: Rattus norvegicus, 96 h, after 4 days treatment with oestradiol 0.073 umole/kg, read-out: Dose which induces a significant decrease of the prolactine level (Test 10)
Method: 10. The dose which induces a significant decrease of the prolactine level after 4 days treatment with a dose of 0.073 umole/kg of oeastradiol, on three weeks earlier ovariectomised rats.
as §4, §5

[11] = read-out: ED, lowest i.p. dose which still decreases the spontaneous motility (Test 3, -)

CN1Cc2c(NC(=O)CN3CCCC3)cccc2C(c2ccccc2)C1 (centres unmarked) [Compound A, 4-phenyl-2-methyl-8-pyrrolidino-acetylamino-1,2,3,4-tetrahydro-isoquinoline-dimaleate]
Quotient of the ED values of Columns 2 and 4 [1]: 1,4 | minimal effective dose [2]: 89 µmol/kg | minimal effective dose [3]: 5.2 µmol/kg | TI (Test 3), LD/ED quotient [4]: 3 | minimal effective dose [4, 11]: 206 µmol/kg | TI (Test 5), LD/ED quotient [5]: 15 | ED50 [5]: 43 µmol/kg | TI (Test 4), LD/ED quotient [6]: 11 | ED50 [6]: 62 µmol/kg | LD50 at 96 h [7]: 653 µmol/kg | TI (Test 2), LD/ED quotient [8]: 8 | ED50 [8]: 86 µmol/kg | TI (Test 6), LD/ED quotient [9]: 8 | minimal effective dose [9]: 86 µmol/kg

CC(C)NCCC(=O)Nc1cccc2c1CN(C)CC2c1ccccc1 (centres unmarked) [Compound B, 4-phenyl-8-[3'-isopropylamino-propionyl-amino]-2-methyl-1,2,3,4-tetrahydroisoquinoline-maleate]
Quotient of the ED values of Columns 2 and 4 [1]: 1,3 | minimal effective dose [2]: > 178 µmol/kg | minimal effective dose [3]: 4.3 µmol/kg | minimal effective dose [10]: 96 µmol/kg | TI (Test 3), LD/ED quotient [4]: 6 | minimal effective dose [4, 11]: 342 µmol/kg | TI (Test 5), LD/ED quotient [5]: 7 | ED50 [5]: 267 µmol/kg | TI (Test 4), LD/ED quotient [6]: 6 | ED50 [6]: 321 µmol/kg | LD50 at 96 h [7]: 1920 µmol/kg | TI (Test 2), LD/ED quotient [8]: 5 | ED50 [8]: 428 µmol/kg | TI (Test 6), LD/ED quotient [9]: 5 | minimal effective dose [9]: 428 µmol/kg

CCCCNCC(=O)Nc1cccc2c1CN(C)CC2c1ccc(Cl)cc1 (centres unmarked) [Compound D, 8-butyl-amino-acetyl-amino-4-p-chloro-phenyl-2-methyl-1,2,3,4-tetrahydro-isoquinoline-maleate]
Quotient of the ED values of Columns 2 and 4 [1]: 1,8 | minimal effective dose [2]: 64 µmol/kg | minimal effective dose [3]: 1 µmol/kg | minimal effective dose [10]: 36 µmol/kg | TI (Test 3), LD/ED quotient [4]: < 16 | minimal effective dose ([4]; read-out: ED, lowest i.p. dose which still increases or decreases the spontaneous motility (Test 3, no sign)): > 40 µmol/kg | TI (Test 5), LD/ED quotient [5]: 82 | ED50 [5]: 7.8 µmol/kg | TI (Test 4), LD/ED quotient [6]: 24 | ED50 [6]: 27 µmol/kg | LD50 at 96 h [7]: 637 µmol/kg | TI (Test 2), LD/ED quotient [8]: 13 | ED50 [8]: 48 µmol/kg | TI (Test 6), LD/ED quotient [9]: 64 | minimal effective dose [9]: 10 µmol/kg | Therapeutical index in the anti-reserpine test compared with Nomifensine (in words) ([9]; anti-reserpine test): more favourable therapeutical index

CCCCNC(=O)Nc1cccc2c1CN(C)CC2c1ccc(Cl)cc1 (centres unmarked) [Compound E, 8-n-butyl-carbamoyl-amino-4-p-chloro-phenyl-2-methyl-1,2,3,4-tetrahydro-isoquinoline-maleate]
Quotient of the ED values of Columns 2 and 4 [1]: 2,7 | minimal effective dose [2]: 275 µmol/kg | minimal effective dose [3]: 6.1 µmol/kg | minimal effective dose [10]: 143 µmol/kg | TI (Test 3), LD/ED quotient [4]: > 66 | minimal effective dose [4, 11]: 31 µmol/kg | TI (Test 5), LD/ED quotient [5]: > 66 | ED50 [5]: 31 µmol/kg | TI (Test 4), LD/ED quotient [6]: > 23 | ED50 [6]: 90 µmol/kg | LD50 at 96 h [7]: > 2050 µmol/kg | TI (Test 2), LD/ED quotient [8]: > 8 | ED50 [8]: 246 µmol/kg | minimal effective dose [9]: > 205 µmol/kg

CCCCNC(=O)Nc1cccc2c1CN(C)CC2c1ccc(C)cc1 (centres unmarked) [Compound F, 2-methyl-8-n-butyl-carbamoyl-amino-4-p-tolyl-1,2,3,4-tetrahydro-isoquinoline-maleate]
Quotient of the ED values of Columns 2 and 4 [1]: > 1,7 and 1.7 | minimal effective dose [2]: 178 µmol/kg | minimal effective dose [3]: > 11 µmol/kg | minimal effective dose [10]: 107 µmol/kg | TI (Test 3), LD/ED quotient [4]: > 60 | minimal effective dose [4, 11]: 43 µmol/kg | TI (Test 5), LD/ED quotient [5]: > 80 | ED50 [5]: 32 µmol/kg | TI (Test 4), LD/ED quotient [6]: > 20 | ED50 [6]: 128 µmol/kg | LD50 at 96 h [7]: > 2570 µmol/kg | TI (Test 2), LD/ED quotient [8]: > 12 | ED50 [8]: > 214 µmol/kg | TI (Test 6), LD/ED quotient [9]: > 30 | minimal effective dose [9]: 86 µmol/kg
